The term GI50 denotes the concentration that inhibits growth by half.

The structures appear in SMILES notation.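 How tested: cells in 96-well plates exposed to compound for 48 hours at five concentrations. Here, GI50 denotes the concentration required for 50% inhibition of growth.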 Active and inactive are the calls of the source. No stated cut-off is given here; in the data, active = GI50 up to about 1.1 µM and inactive = higher.

Experimental findings from ChEMBL document CHEMBL1201862, “PubChem BioAssay data set” (2004) are described below.

Test systems include 786-0; A549; CCRF-CEM; HCC 2998; HCT-116; HOP-62; HOP-92; M14; MCF7; MOLT-4; NCI-H460; OVCAR-8; RPMI-8226; SK-MEL-28; SK-OV-3; SR; TK-10; U-251; UACC-257; UO-31.
Holding throughout (experiment): DTP human tumour cell line panel, 48 h

For `Fc1ccc(Nc2nc(Cl)c3nc[nH]c3n2)cc1Cl`, the GI50 in the assay on 786-0 was 86.9 µM (inactive); in the assay with A549 it was > 100 µM (inactive); in the assay with CCRF-CEM, > 100 µM (inactive); with HCC 2998, 32.9 µM (inactive); in the assay on HCT-116, > 100 µM (inactive); in the assay on HOP-62 it was 61.8 µM (inactive). Further, the GI50 in the assay with HOP-92 was > 100 µM (inactive); in the assay on M14, > 100 µM (inactive); in the assay on MCF7, 98.9 µM (inactive); in the assay with MOLT-4, > 100 µM (inactive); in the assay with NCI-H460, 58.9 µM (inactive); in the assay with OVCAR-8 it was 24.9 µM (inactive). The GI50 in the assay with RPMI-8226 was > 100 µM (inactive); in the assay with SK-MEL-28, > 100 µM (inactive); with SK-OV-3, 87.1 µM (inactive); in the assay on SR, 86.1 µM (inactive); with TK-10, > 100 µM (inactive); with U-251 it was 74.6 µM (inactive). Also, the GI50 with UACC-257 is > 100 µM (inactive); in the assay on UO-31 it was 4.74 µM (inactive).
Regarding `Cc1nc(C(N)=S)sc1C(=O)C/C(=N/N)C(=O)Nc1cccc(Cl)c1C`, the GI50 with 786-0, in the assay with A549, in the assay with CCRF-CEM, in the assay on HCC 2998, with HCT-116 and in the assay on HOP-62 was > 100 µM (inactive) each time. For the same molecule, the GI50 in the assay on HOP-92, in the assay with M14, in the assay with MCF7, in the assay on MOLT-4, in the assay on NCI-H460 and in the assay on OVCAR-8 was > 100 µM (inactive) each time. In addition, the GI50 in the assay with RPMI-8226, with SK-MEL-28, in the assay with SK-OV-3, in the assay on SR, with TK-10 and in the assay with U-251 was > 100 µM (inactive) throughout. Further, the GI50 in the assay with UACC-257 and in the assay with UO-31 was > 100 µM (inactive) in each case.
Turning to `Cn1ncc(NCCn2cnc3c2c(=O)n(C)c(=O)n3C)c(Cl)c1=O`, the GI50 in the assay on 786-0, with A549, in the assay on CCRF-CEM, in the assay on HCC 2998, in the assay with HCT-116 and in the assay with HOP-62 was > 100 µM (inactive) in each case. Moreover, the GI50 in the assay with HOP-92, in the assay on M14, in the assay with MCF7, in the assay with MOLT-4, with NCI-H460 and with OVCAR-8 was > 100 µM (inactive) in each case. For the same molecule, the GI50 with RPMI-8226, with SK-MEL-28, with SK-OV-3, in the assay with SR, in the assay with TK-10 and in the assay with U-251 was > 100 µM (inactive) each time. Further, the GI50 in the assay with UACC-257 and in the assay with UO-31 was > 100 µM (inactive) each time.
For the molecule `CO[C@@H]1C[C@H](OC(N)=O)[C@@H]2C=C[C@@H]3/C=C(C)/C=C/[C@@H](C)[C@H](/C(C)=C/[C@@H](C)NC(C)=O)OC(=O)/C=C/C=C(C)\C=C\[C@]3(C)[C@@H]2C1` [SUPERSTOLIDE B], the GI50 in the assay with 786-0 was < 0.005 µM (active); with A549 it was < 0.005 µM (active); in the assay on CCRF-CEM it was 0.107 µM (active); with HCC 2998, < 0.005 µM (active); in the assay with HCT-116, < 0.005 µM (active); with HOP-62, < 0.005 µM (active). Moreover, the GI50 in the assay with HOP-92 was < 0.005 µM (active); in the assay on M14, < 0.005 µM (active); in the assay on MCF7, 0.00693 µM (active); with MOLT-4, 0.31 µM (active); with NCI-H460 it was < 0.005 µM (active); with OVCAR-8, 0.00607 µM (active). For the same molecule, the GI50 is 0.0158 µM (active) in the assay with RPMI-8226; < 0.005 µM (active) in the assay with SK-MEL-28; < 0.005 µM (active) in the assay with SK-OV-3; < 0.005 µM (active) in the assay with SR; 0.0718 µM (active) in the assay with TK-10; < 0.005 µM (active) in the assay with U-251. The GI50 in the assay on UACC-257 is 0.0189 µM (active); in the assay with UO-31 it was < 0.005 µM (active).
In the case of `C=C1CC2(C[C@@H](c3ccccc3)O[C@@H](c3ccccc3)C2)OC1=O` (stereo not given in full), the GI50 in the assay with 786-0 was 2.59 µM (inactive); in the assay with A549 it was 5.89 µM (inactive); in the assay with CCRF-CEM, 1.71 µM (inactive); with HCC 2998, 6.7 µM (inactive); with HCT-116, 1.9 µM (inactive); in the assay with HOP-62, 14.4 µM (inactive). Further, the GI50 in the assay with HOP-92 was 5.22 µM (inactive); with M14, 1.77 µM (inactive); with MCF7 it was 2.13 µM (inactive); in the assay on MOLT-4, 1.95 µM (inactive); in the assay on NCI-H460, 10.2 µM (inactive); with OVCAR-8 it was 2.49 µM (inactive). Further, the GI50 was 0.341 µM (active) in the assay with RPMI-8226; 1.86 µM (inactive) in the assay with SK-MEL-28; 14.5 µM (inactive) in the assay with SK-OV-3; 2.3 µM (inactive) with SR; 1.8 µM (inactive) in the assay on TK-10; 15.4 µM (inactive) in the assay on U-251. Moreover, the GI50 is 3.35 µM (inactive) with UACC-257 and 6.24 µM (inactive) in the assay on UO-31.
Take `C[NH+]1[C@@H](Cc2ccccc2)C(=O)O[B-]1(F)c1ccccc1` (stereo not given in full): the GI50 in the assay with 786-0, with A549, with CCRF-CEM, with HCC 2998, in the assay with HCT-116 and in the assay with HOP-62 was > 100 µM (inactive) throughout. Besides, the GI50 with HOP-92, with M14, in the assay on MCF7, in the assay on MOLT-4, with NCI-H460 and with OVCAR-8 was > 100 µM (inactive) throughout. Further, the GI50 in the assay with RPMI-8226, in the assay with SK-MEL-28, in the assay with SK-OV-3, in the assay on SR, in the assay on TK-10 and with U-251 was > 100 µM (inactive) each time. Moreover, the GI50 with UACC-257 and in the assay on UO-31 was > 100 µM (inactive) each time.
For the molecule `O=C(N/N=C\c1ccc([N+](=O)[O-])s1)c1ccncc1`, the GI50 in the assay on 786-0 was 6.67 µM (inactive); in the assay with A549 it was 16.7 µM (inactive); in the assay with CCRF-CEM it was 6.52 µM (inactive); in the assay on HCC 2998, 5.71 µM (inactive); in the assay on HCT-116 it was 5.07 µM (inactive); with HOP-62 it was 14.4 µM (inactive). In addition, the GI50 in the assay on HOP-92 is 15.6 µM (inactive); with M14 it was 11.6 µM (inactive); in the assay with MCF7, 3.02 µM (inactive); in the assay with MOLT-4, 19.9 µM (inactive); in the assay on NCI-H460, 6.65 µM (inactive); with OVCAR-8, 14.7 µM (inactive). The GI50 in the assay on RPMI-8226 was 5.62 µM (inactive); in the assay on SK-MEL-28, 35.3 µM (inactive); in the assay on SK-OV-3 it was 38.5 µM (inactive); in the assay with SR it was 5.65 µM (inactive); in the assay with TK-10, 23.1 µM (inactive); in the assay with U-251 it was 17.7 µM (inactive). Also, the GI50 was 14.6 µM (inactive) with UACC-257 and 17.2 µM (inactive) with UO-31.
On to `CCCCCCCC(=O)OC[n+]1cccc(-c2c(COC(=O)NC(C)C)c(COC(=O)NC(C)C)c3n2CCC3)c1`, for which the GI50 in the assay with 786-0 is 40 µM (inactive); in the assay with A549, > 96.2 µM (inactive); in the assay with CCRF-CEM, 21.2 µM (inactive); in the assay on HCC 2998, > 100 µM (inactive); with HCT-116 it was 50 µM (inactive); with HOP-62, > 63.1 µM (inactive). Moreover, the GI50 in the assay on HOP-92 is 44.8 µM (inactive); with M14, 98.2 µM (inactive); in the assay on MCF7, 45.6 µM (inactive); in the assay with MOLT-4 it was 20.1 µM (inactive); in the assay with NCI-H460, 46.1 µM (inactive); in the assay with OVCAR-8, 82 µM (inactive). For the same molecule, the GI50 in the assay with RPMI-8226 is > 86.1 µM (inactive); in the assay with SK-MEL-28, > 100 µM (inactive); in the assay with SK-OV-3 it was > 100 µM (inactive); in the assay with SR it was 12.8 µM (inactive); in the assay with TK-10, > 100 µM (inactive); in the assay on U-251, > 72.8 µM (inactive). For the same molecule, the GI50 in the assay on UACC-257 was > 100 µM (inactive); with UO-31, 62.8 µM (inactive).
For `CC(=O)N1C(CCc2ccccc2)CC(C)(C=O)C1Cc1ccc(O[Si](C(C)C)(C(C)C)C(C)C)cc1` (stereo not given), the GI50 was 2.38 µM (inactive) in the assay with 786-0; 3.87 µM (inactive) with A549; 1.87 µM (inactive) with CCRF-CEM; 1.31 µM (inactive) with HCC 2998; 2.55 µM (inactive) with HCT-116; 8.11 µM (inactive) in the assay on HOP-62. Besides, the GI50 with HOP-92 was 9.71 µM (inactive); in the assay on M14, 1.85 µM (inactive); in the assay on MCF7, 2.05 µM (inactive); in the assay with MOLT-4 it was 1.06 µM (active); in the assay on NCI-H460, 2.96 µM (inactive); in the assay on OVCAR-8, 4.39 µM (inactive). Moreover, the GI50 in the assay on RPMI-8226 was 2.07 µM (inactive); in the assay on SK-MEL-28, 6.32 µM (inactive); in the assay with SK-OV-3, 13.4 µM (inactive); in the assay with SR it was 2.09 µM (inactive); in the assay with TK-10 it was 3.68 µM (inactive); in the assay on U-251 it was 3.12 µM (inactive). The GI50 with UACC-257 is 5.11 µM (inactive); with UO-31 it was 3.21 µM (inactive).
As for `O=C1NC(=O)C2=C1CCC2O` (stereo not given), the GI50 in the assay with 786-0, in the assay on A549, in the assay on CCRF-CEM, with HCC 2998, in the assay on HCT-116 and in the assay on HOP-62 was > 100 µM (inactive) each time. Further, the GI50 in the assay with HOP-92, with M14, with MCF7, with MOLT-4, with NCI-H460 and in the assay with OVCAR-8 was > 100 µM (inactive) throughout. For the same molecule, the GI50 in the assay on RPMI-8226, in the assay on SK-MEL-28, in the assay with SK-OV-3, in the assay on SR, with TK-10 and in the assay on U-251 was > 100 µM (inactive) throughout. The GI50 in the assay with UACC-257 and with UO-31 was > 100 µM (inactive) each time.
